Patent publication US12576030B2, “Compositions for delivery of codon-optimized mRNA” (Translate Bio, Inc., priority 2020, dated 2026)
“Also recorded” adds a separate entry of the source.

Tested on: male CD1 mice
Assay: Luciferase radiance in lung after pulmonary delivery of FFL mRNA-LNPs
Type: in vivo
Details: for potency as determined by the average radiance detected in mouse lungs: FFL mRNA-LNP, single intratracheal administration via nebulization, about 5 hours post-dose
Experimental: About 150 cationic lipids were tested. (FIG. 7). Each cationic lipid was used in preparing lipid nanoparticles encapsulating mRNA encoding firefly luciferase protein (FFL mRNA) according to methods known in the art. For example, suitable methods for mRNA encapsulation include methods described in International Publication Nos. WO2016/004318 and WO 2018/089801, which is hereby incorporated by reference in its entirety. The tested lipid nanoparticles comprised a lipid component consisting of a cationic lipid, a non-cationic lipid (DOPE), a PEG-modified lipid (DMG-PEG2K), and optionally cholesterol.
Lipid nanoparticle formulations comprising FFL mRNA were administered to male CD1 mice by a single intratracheal administration via nebulization using a Microsprayer®. At approximately 5 hours post-dose, the animals were dosed with luciferin by intraperitoneal injection and all animals were imaged using an IVIS imaging system to measure luciferase production in the lung. […] Some cationic lipids remarkably had greater than 50-fold increase in pulmonary protein expression as compared to other cationic lipids.

Structure (SMILES): CCCCC/C=C\C/C=C\CCCCCCCC(=O)OCC(COC(=O)CCCCCCC/C=C\C/C=C\CCCCC)(COC(=O)CCCCCCC/C=C\C/C=C\CCCCC)NCCS(=O)(=O)NCCN(C)C [GL-TES-SA-DME-E18-2, 2-((2-(N-(2-(dimethylamino)ethyl)sulfamoyl)ethyl)amino)-2-((((9Z,12Z)-octadeca-9,12-dienoyl)oxy)methyl)propane-1,3-diyl (9Z,9′Z,12Z,12′Z)-bis(octadeca-9,12-dienoate)]
- potency as determined by the average radiance detected in mouse lungs: performed particularly well; also recorded: particularly high potency

Structure (SMILES): CCCCC/C=C\C/C=C\CCCCCCCC(=O)OCC(COC(=O)CCCCCCC/C=C\C/C=C\CCCCC)(COC(=O)CCCCCCC/C=C\C/C=C\CCCCC)NCCS(=O)(=O)NCCCN(C)C [GL-TES-SA-DMP-E18-2]
- potency as determined by the average radiance detected in mouse lungs: performed particularly well; also recorded: particularly high potency

Structure (SMILES): CCCCCCCCC(O)CN(CCCC(=O)OCCN1CC(C)N(CCOC(=O)CCCN(CC(O)CCCCCCCC)CC(O)CCCCCCCC)CC1C)CC(O)CCCCCCCC (centres unmarked) [HEP-E3-E10]
- potency as determined by the average radiance detected in mouse lungs: performed particularly well
- potency as determined by the average radiance detected in mouse lungs (listed as REP-E3-E10): particularly high potency

Structure (SMILES): CCCCCCCCC(O)CN(CCCCC(=O)OCCN1CC(C)N(CCOC(=O)CCCCN(CC(O)CCCCCCCC)CC(O)CCCCCCCC)CC1C)CC(O)CCCCCCCC (centres unmarked) [HEP-E4-E10]
- potency as determined by the average radiance detected in mouse lungs: performed particularly well; also recorded: particularly high potency

Structure (SMILES): CC(C)CCCC(C)C1CCC2C3CC=C4CC(OC(=O)CCc5cnc[nH]5)CCC4(C)C3CCC12C (centres unmarked) [ICE, imidazole cholesterol ester, reference compound]
- historical radiance/expression of pulmonary-delivered FFL mRNA in LNP (LNP comprising the named cationic lipid, pulmonary-delivered (e.g., nebulized)): around 10^4 p/s/cm^2sr

Structure (SMILES): CCCCCCCCOC(=O)CC(CC(=O)OCCCCCCCC)(OC(=O)CCN(C)C)C(=O)OCCCCCCCC [TL1-01D-DMA, trioctyl 2-((3-(dimethylamino)propanoyl)oxy)propane-1,2,3-tricarboxylate]
- potency as determined by the average radiance detected in mouse lungs: performed particularly well; also recorded: particularly high potency

Structure (SMILES): CCCCCCCCCCCCCCOC(=O)CC(CC(=O)OCCCCCCCCCCCCCC)(OC(=O)CCN(C)C)C(=O)OCCCCCCCCCCCCCC [TL1-04D-DMA]
- potency as determined by the average radiance detected in mouse lungs: performed particularly well; also recorded: particularly high potency
